Measured values reported in patent publication US10952992B2, “Methods of treating intraocular pressure with activators of Tie-2” (Aerpio Pharmaceuticals, Inc., priority 2015, dated 2021).
Where “and” joins values, the source holds several entries; their conditions need not be identical. Equal values may be shown once. Where a name gives a salt, the structure may show the parent alone.

Assays:
[1] = Example 2 vitreous humor concentrations; assay type: in vivo, male New Zealand White rabbits; conditions: for Average Peak Concentration, Vitreous Humor: solution
Protocol: (§1) To measure the concentration of Compound 1 in plasma and ocular tissues following topical ocular, subcutaneous, and intravitreal administration, New Zealand White rabbits were administered Compound 1, and plasma and ocular samples were collected at pre-determined time points. Compound 1 formulations were prepared fresh on each day of dosing.
(§2) Ocular tissue samples from both eyes of each animal were collected and weights were recorded. Plasma and ocular tissue sample concentrations of Compound 1 were determined by LC-MS/MS.
(§3) Animals were anesthetized for ocular (topical) and intravitreal dosing following the 12IA7 IACUC protocol. Each rabbit received a bolus dose of test formulation either via topical ocular administration 3 times daily on Days 1 and 2 (at 0, 6, and 12 hours), and once on Day 3 (at 0 hours) into both eyes; via intravitreal administration into both eyes once on Day 1 (at 0 hours); or via subcutaneous administration 2 times daily on Days 1 and 2 (at 0 and 8 hours) and once daily on Day 3 (at 0 hours). Doses were given within an approximately 1 hour window each day where applicable.
On Day 1, for intravitreal administration, or on Day 3, for topical ocular and subcutaneous administration, at the appropriate ocular tissue collection time points, animals were euthanized and both eyes were enucleated immediately. Following enucleation, each eye was rinsed with phosphate-buffered saline. Ocular tissue samples from both eyes of each animal were collected at predetermined time points and weights were recorded. All the samples were frozen immediately on dry ice, and stored at −60° C. to −80° C. pending bioanalysis.
(§4) An LC-MS/MS method was developed for the determination of Compound 1 in rabbit aqueous tissues (plasma, aqueous and vitreous humor) and solid ocular tissue samples. A pre-study standard curve was analyzed to determine the specificity, range, and lower limit of quantitation of the method. Plasma and tissue homogenate study samples were extracted and analyzed. All the samples were treated identically to the standards.
(§5) One eight-point standard curve was used in each analytical batch. To be accepted, each batch must have had at least five of eight standards with accuracy within ±20% of nominal, except at the lower limit of quantification (LLOQ), where ±25% was acceptable.

[2] = Example 2 plasma concentrations and pharmacokinetics after topical ocular, subcutaneous, intravitreal administration; assay type: in vivo, male New Zealand White rabbits; conditions: Group 1: topical ocular 1.2 mg/eye (~0.7 mg/kg/dose); for plasma Average conc. / plasma Conc., individual rabbit: 15% HPβCD + 1% dextrose
Protocol: as §1, §2
New Zealand White rabbits weighing 2.5 to 3.5 kg were used on this study. Rabbits were housed one per cage. Animals were not fasted and only healthy animals with no ocular illness were used. Two rabbits per group were sacrificed at each of four ocular tissue sampling time points for a total of eight rabbits per group.
as §3
Each blood sample was collected on Day 3 post dose at pre-determined time points from the rabbits via an ear vessel and placed into chilled polypropylene tubes containing sodium heparin as an anticoagulant. Samples were spun by centrifuge at 4° C. and 3,000× g for 5 minutes. Samples were maintained chilled throughout processing. Each plasma sample was placed on dry ice and stored in a freezer at −60° C. to −80° C. pending bioanalysis.
as §4, §5
Pharmacokinetic parameters were calculated from the time course of the plasma concentration. The maximum plasma concentration (Cmax) and time to the maximum plasma drug concentration (Tmax) were the observed values for each concentration-time profiles. The area under the plasma drug concentration-time curve (AUClast, with last being from time 0 to the last quantifiable point) was calculated using the trapezoidal formula. The mean residence time MRTlast was calculated as a ratio of AUMClast (area under the first movement curve) to AUClast.

[3] = Group 1 (topical ocular 1.2 mg/eye), 0.5 hr
[4] = Group 1 (topical ocular 1.2 mg/eye), 1.0 hr
[5] = Group 1 (topical ocular 1.2 mg/eye), 2.0 hr
[6] = Group 1 (topical ocular 1.2 mg/eye), 4.0 hr
[7] = Group 2 (subcutaneous 5 mg/kg/dose, solution), 0.5 hr
[8] = Group 2 (subcutaneous 5 mg/kg/dose, solution), 1.0 hr
[9] = Group 2 (subcutaneous 5 mg/kg/dose, solution), 2.0 hr, BLOQ = below 0.2 ng/mL
[10] = Group 2 (subcutaneous 5 mg/kg/dose, solution), 4.0 hr, BLOQ = below 0.2 ng/mL
[11] = Group 4 (intravitreal 2.5 mg/eye, solution), 6.0 hr
[12] = Group 4 (intravitreal 2.5 mg/eye, solution), 24 hr
[13] = Group 4 (intravitreal 2.5 mg/eye, solution), 48 hr
[14] = Group 4 (intravitreal 2.5 mg/eye, solution), 72 hr
[15] = 15% HPβCD + 1% dextrose solution

## COC(=O)N[C@@H](Cc1ccccc1)C(=O)N[C@@H](Cc1ccc(NS(=O)(=O)O)cc1)c1csc(-c2cccs2)n1 [Compound 1 sodium salt]
[1]; [3]
  vitreous humor Average Conc.: 0.61 ng/g
  vitreous humor Conc. OD: 0.549 ng/mL
  vitreous humor Conc. OS: 0.528 ng/mL and 0.507 ng/mL
[1]; [4]
  vitreous humor Average Conc.: 2.09 ng/g
  vitreous humor Conc. OD: 1.97 ng/mL and 3.28 ng/mL
[1]; [5]
  vitreous humor Average Conc.: 3.33 ng/g
  vitreous humor Conc. OD: 1.14 ng/mL
  vitreous humor Conc. OS: 0.950 ng/mL
[1]; [6]
  vitreous humor Average Conc.: 4.01 ng/g
  vitreous humor Conc. OD: 1.09 ng/mL and 0.551 ng/mL
  vitreous humor Conc. OS: 2.20 ng/mL
[1]; Group 1: topical ocular 0.70 mg/kg/dose
  Average Peak Concentration, Vitreous Humor: 0.61 ng/g
[1]; [7]
  vitreous humor Average Conc.: 0.83 ng/g
  vitreous humor Conc. OD: 0.77 ng/mL and 0.537 ng/mL
  vitreous humor Conc. OS: 1.03 ng/mL and 0.981 ng/mL
[1]; [8]
  vitreous humor Average Conc.: 0.45 ng/g
  vitreous humor Conc. OD: 0.252 ng/mL and 0.442 ng/mL
[1]; [9]
  vitreous humor Conc. OD: BLOQ
  vitreous humor Conc. OS: BLOQ
[1]; [10]
  vitreous humor Conc. OD: BLOQ
  vitreous humor Conc. OS: BLOQ
[1]; Group 2: subcutaneous 5 mg/kg/dose
  Average Peak Concentration, Vitreous Humor: 0.83 ng/g
[1]; [11]
  vitreous humor Average Conc.: 988500 ng/g
  vitreous humor Conc. OD: 1450000 ng/mL and 1480000 ng/mL
  vitreous humor Conc. OS: 592000 ng/mL and 432000 ng/mL
[1]; [12]
  vitreous humor Average Conc.: 349500 ng/g
  vitreous humor Conc. OD: 438000 ng/mL and 406000 ng/mL
  vitreous humor Conc. OS: 295000 ng/mL and 259000 ng/mL
[1]; [13]
  vitreous humor Average Conc.: 82000 ng/g
  vitreous humor Conc. OD: 85200 ng/mL and 68600 ng/mL
  vitreous humor Conc. OS: 82300 ng/mL and 91900 ng/mL
[1]; [14]
  vitreous humor Average Conc.: 13450 ng/g
  vitreous humor Conc. OD: 14500 ng/mL and 11700 ng/mL
  vitreous humor Conc. OS: 13500 ng/mL and 14100 ng/mL
[1]; Group 4: intravitreal 1.55 mg/kg/dose
  Average Peak Concentration, Vitreous Humor: 988500 ng/g
[1]; intravitreal administration, 6 hr post-dosing
  vitreous humor concentrations vs free acid (FIG. 11): higher vitreous humor concentrations
[1]; subcutaneous administration, 0.5 hr and 1 hr post-dosing
  vitreous humor concentrations vs free acid (FIG. 10): increased vitreous humor concentrations
[1]; topical ocular administration
  vitreous humor concentrations over time (FIG. 9): increased vitreous humor concentrations
[2]; [15]
  plasma AUClast (± SE): 0.0118 ± 0.0057 µg·h/mL and 0.0118 µg·h/mL
  plasma Cmax (± SE): 7.48 ± 5.53 ng/mL and 7.48 ng/mL
  plasma MRTlast: 2.98 h
  plasma tmax: 4.00 h
[2]; 15% HPβCD + 1% dextrose solution, listed as Compound 1 (sodium salt)
  plasma tmax: 4 h
[2]; 0.50 hr
  plasma Average conc.: 3.03 ng/mL
  plasma Conc., individual rabbit: 3.84 ng/mL and 2.21 ng/mL
[2]; 1.0 hr
  plasma Average conc.: 1.46 ng/mL
  plasma Conc., individual rabbit: 1.28 ng/mL and 1.63 ng/mL
[2]; 2.0 hr
  plasma Average conc.: 1.14 ng/mL
  plasma Conc., individual rabbit: 2.04 ng/mL and 0.241 ng/mL
